Values of other authors as cited in PubChem BioAssay AID1259409 (Chemical Carcinogenesis Research Information System (CCRIS), 2018).

Test system: rodent chemically induced tumor inhibition, incidence and multiplicity
Assay: CCRIS tumor inhibitor studies
Conditions: Route [Inhibitor]: ORAL, Species: RAT, Strain/Sex: F344/MALE, Promoter: NONE USED

O=C1O[C@H]([C@@H](O)CO)C(O)=C1O
tumour outcome (control, treated, inhibition, significance) (Carcinogen: N-BIS(2-HYDROXYPROPYL)NITROSAMINE, 53609-64-6, Dose [Inhibitor]: 0, 5% IN DIET FOR 30 WK BEGINNING POST CARCINOGEN TREATMENT (STUDY DURATION: 32 WK), Target Tissue: Type of Lesion: BLADDER: ADENOMA, Dose [Carcinogen]: 0.1% IN DRINKING WATER FOR 2 WK): 5%, 10%, -100%, not calculated | tumour outcome (control, treated, inhibition, significance) (Carcinogen: N-BIS(2-HYDROXYPROPYL)NITROSAMINE, 53609-64-6, Dose [Inhibitor]: 0, 5% IN DIET FOR 30 WK BEGINNING POST CARCINOGEN TREATMENT (STUDY DURATION: 32 WK), Target Tissue: Type of Lesion: KIDNEY: TUMOR, Dose [Carcinogen]: 0.1% IN DRINKING WATER FOR 2 WK): 10%, 30%, -200%, not calculated | tumour outcome (control, treated, inhibition, significance) (Carcinogen: N-BIS(2-HYDROXYPROPYL)NITROSAMINE, 53609-64-6, Dose [Inhibitor]: 0, 5% IN DIET FOR 30 WK BEGINNING POST CARCINOGEN TREATMENT (STUDY DURATION: 32 WK), Target Tissue: Type of Lesion: LUNG: ADENOMA, Dose [Carcinogen]: 0.1% IN DRINKING WATER FOR 2 WK): 100%, 100%, 0%, not significant | tumour outcome (control, treated, inhibition, significance) (Carcinogen: N-BIS(2-HYDROXYPROPYL)NITROSAMINE, 53609-64-6, Dose [Inhibitor]: 0, 5% IN DIET FOR 30 WK BEGINNING POST CARCINOGEN TREATMENT (STUDY DURATION: 32 WK), Target Tissue: Type of Lesion: LUNG: CARCINOMA, Dose [Carcinogen]: 0.1% IN DRINKING WATER FOR 2 WK): 45%, 20%, 56%, not calculated | tumour outcome (control, treated, inhibition, significance) (Carcinogen: N-BIS(2-HYDROXYPROPYL)NITROSAMINE, 53609-64-6, Dose [Inhibitor]: 0, 5% IN DIET FOR 30 WK BEGINNING POST CARCINOGEN TREATMENT (STUDY DURATION: 32 WK), Target Tissue: Type of Lesion: THYROID: ADENOMA, Dose [Carcinogen]: 0.1% IN DRINKING WATER FOR 2 WK): 5%, 30%, -500%, not calculated | tumour outcome (control, treated, inhibition, significance) (Carcinogen: N-BIS(2-HYDROXYPROPYL)NITROSAMINE, 53609-64-6, Dose [Inhibitor]: 0, 5% IN DIET FOR 30 WK BEGINNING POST CARCINOGEN TREATMENT (STUDY DURATION: 32 WK), Target Tissue: Type of Lesion: THYROID: CARCINOMA, Dose [Carcinogen]: 0.1% IN DRINKING WATER FOR 2 WK): 20%, 10%, 50%, not calculated | tumour outcome (control, treated, inhibition, significance) (Carcinogen: N-BUTYL-N-(4-HYDROXYBUTYL)NITROSAMINE, 3817-11-6, Dose [Inhibitor]: 4.45% IN BASAL DIET ADMINISTERED SIMULTANEOUSLY WITH CARCINOGEN DOSE FOR 20 WK (STUDY DURATION: 20 WK), Target Tissue: Type of Lesion: BLADDER: CARCINOMA, Dose [Carcinogen]: 0.025% IN DRINKING WATER FOR 20 WK): 3/15 (20%), 6/14 (43%), -115%, not calculated | tumour outcome (control, treated, inhibition, significance) (Carcinogen: N-BUTYL-N-(4-HYDROXYBUTYL)NITROSAMINE, 3817-11-6, Dose [Inhibitor]: 4.45% IN BASAL DIET ADMINISTERED SIMULTANEOUSLY WITH CARCINOGEN DOSE FOR 20 WK (STUDY DURATION: 20 WK), Target Tissue: Type of Lesion: BLADDER: PAPILLOMA, Dose [Carcinogen]: 0.025% IN DRINKING WATER FOR 20 WK (FOR A TOTAL INTAKE OF 4.0 MMOL/RAT)): 4/15 (27%), 4/14 (29%), -7%, not calculated | tumour outcome (control, treated, inhibition, significance) (Carcinogen: N-BUTYL-N-(4-HYDROXYBUTYL)NITROSAMINE, 3817-11-6, Dose [Inhibitor]: 5% DIET DAILY FOR 34 WK BEGINNING POST CARCINOGEN TREATMENT (STUDY DURATION: 38 WK), Target Tissue: Type of Lesion: URINARY BLADDER: PAPILLOMA, Dose [Carcinogen]: 0.01% IN DRINKING WATER FOR 4 WK): 33%, 21%, 36%, not significant | tumour outcome (control, treated, inhibition, significance) (Carcinogen: N-BUTYL-N-(4-HYDROXYBUTYL)NITROSAMINE, 3817-11-6, Dose [Inhibitor]: 5% IN BASAL DIET ADMINISTERED SIMULTANEOUSLY WITH CARCINOGEN DOSE FOR 20 WK (STUDY DURATION: 20 WK), Target Tissue: Type of Lesion: BLADDER: CARCINOMA, Dose [Carcinogen]: 0.025% IN DRINKING WATER FOR 20 WK): 3/15 (20%), 6/15 (40%), -100%, not calculated | tumour outcome (control, treated, inhibition, significance) (Carcinogen: N-BUTYL-N-(4-HYDROXYBUTYL)NITROSAMINE, 3817-11-6, Dose [Inhibitor]: 5% IN BASAL DIET ADMINISTERED SIMULTANEOUSLY WITH CARCINOGEN DOSE FOR 20 WK (STUDY DURATION: 20 WK), Target Tissue: Type of Lesion: BLADDER: PAPILLOMA, Dose [Carcinogen]: 0.025% IN DRINKING WATER FOR 20 WK (FOR A TOTAL INTAKE OF 4.7 MMOL/RAT)): 4/15 (27%), 2/15 (13%), 50%, not significant | tumour outcome (control, treated, inhibition, significance) (Carcinogen: N-ETHYL-N-(4-HYDROXYBUTYL)NITROSAMINE, 54897-62-0, Dose [Inhibitor]: 4.45% IN BASAL DIET ADMINISTERED SIMULTANEOUSLY WITH CARCINOGEN DOSE FOR 20 WK (STUDY DURATION: 20 WK), Target Tissue: Type of Lesion: BLADDER: CARCINOMA, Dose [Carcinogen]: 0.021% IN DRINKING WATER FOR 20 WK): 13/15 (87%), 14/15 (93%), -8%, not calculated | tumour outcome (control, treated, inhibition, significance) (Carcinogen: N-ETHYL-N-(4-HYDROXYBUTYL)NITROSAMINE, 54897-62-0, Dose [Inhibitor]: 4.45% IN BASAL DIET ADMINISTERED SIMULTANEOUSLY WITH CARCINOGEN DOSE FOR 20 WK (STUDY DURATION: 20 WK), Target Tissue: Type of Lesion: BLADDER: PAPILLOMA, Dose [Carcinogen]: 0.021% IN DRINKING WATER FOR 20 WK): 14/15 (93%), 15/15 (100%), -7%, not calculated | tumour outcome (control, treated, inhibition, significance) (Carcinogen: N-ETHYL-N-(4-HYDROXYBUTYL)NITROSAMINE, 54897-62-0, Dose [Inhibitor]: 5% IN BASAL DIET ADMINISTERED SIMULTANEOUSLY WITH CARCINOGEN DOSE FOR 20 WK (STUDY DURATION: 20 WK), Target Tissue: Type of Lesion: BLADDER: CARCINOMA, Dose [Carcinogen]: 0.021% IN DRINKING WATER FOR 20 WK): 13/15 (87%), 13/15 (87%), 0%, not significant
